*1 amine or outer side, *2 acyl side, *3 side chain or, on linkers, in order; H or OH if unused. Where a SMILES comes first, the peptide text is derived from it. [ ]: non-standard residue; d: D form. Lys((1R,2S)-2-Ph-cPr) = N[C@@H](CCCCN[C@@H]1C[C@H]1c1ccccc1)C(=O)O; X1 = O=C(C1(N[*:1])C2CC3CC(C2)CC1C3)[*:2]; Ac6c = NC1(C(=O)O)CCCCC1; Aib = CC(C)(N)C(=O)O
Legend:
Type in all cases: biochemical
MAO-A = biological target: T1, MAO-A (Homo sapiens, UniProt P21397); assay: MAO-Glo assay, MAO-A inhibitory activity; details: for IC50: Promega V1401, MAO-A 18 units/mL, substrate 160 µM, room temperature, 60 min, chemiluminescence, means ± S.D. of at least three experiments
T1 construct: purchased Sigma-Aldrich
T1 sequence (P21397 1-527): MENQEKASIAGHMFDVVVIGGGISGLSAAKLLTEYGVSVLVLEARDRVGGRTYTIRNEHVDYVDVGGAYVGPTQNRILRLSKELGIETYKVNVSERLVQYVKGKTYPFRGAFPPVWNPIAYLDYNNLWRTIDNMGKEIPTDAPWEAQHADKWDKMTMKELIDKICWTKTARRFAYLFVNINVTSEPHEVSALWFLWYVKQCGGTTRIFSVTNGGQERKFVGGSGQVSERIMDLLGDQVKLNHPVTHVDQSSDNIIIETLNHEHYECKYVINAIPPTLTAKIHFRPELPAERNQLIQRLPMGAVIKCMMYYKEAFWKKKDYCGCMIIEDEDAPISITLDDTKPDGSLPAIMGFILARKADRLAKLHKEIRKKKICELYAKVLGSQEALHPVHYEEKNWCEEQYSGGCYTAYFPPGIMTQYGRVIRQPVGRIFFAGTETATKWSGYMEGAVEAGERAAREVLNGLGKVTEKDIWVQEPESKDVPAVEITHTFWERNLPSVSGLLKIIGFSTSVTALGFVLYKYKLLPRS
Description: (§1) We assayed for the LSD1 inhibitory activities of novel peptides 2a–c. The assay was performed with an LSD1 Fluorometric Drug Discovery Kit (Enzo Life Sciences, New York, NY, USA, BML-AK544-0001). […] Next, we examined the time-dependency of LSD1 inhibition by peptides 2a–c. […] We also assayed for the inhibitory activities of monoamine oxidases (MAOs), which are FAD-dependent oxidases associated with neurotransmitter metabolism, to investigate the selectivity toward LSD1. For this investigation, we used a MAO-Glo^TM Assay System (Promega, Madison, WI, USA, V1401).
(§2) Assays for MAO inhibitory activity were carried out according to the supplier’s protocol using a MAO-Glo^TM Assay System (Promega, V1401). […] Reactions were stopped after 60 min by adding reconstituted Luciferin Detection Reagent (50 µL/well). Then, 20 min after the addition of this reagent, the chemiluminescence of the wells was measured with a 2030 ARVO^TM X3 Multilabel Reader (PerkinElmer). For data processing, the same procedure as that for LSD1 inhibitory activity was used.

MAO-B = biological target: T2, MAO-B (Homo sapiens, UniProt P27338); assay: MAO-Glo assay, MAO-B inhibitory activity; details: Promega V1401; MAO-B 6 units/mL, substrate 16 µM; room temperature, 60 min; chemiluminescence; means ± S.D. of at least three experiments
T2 construct: purchased Sigma-Aldrich
T2 sequence (P27338 1-520): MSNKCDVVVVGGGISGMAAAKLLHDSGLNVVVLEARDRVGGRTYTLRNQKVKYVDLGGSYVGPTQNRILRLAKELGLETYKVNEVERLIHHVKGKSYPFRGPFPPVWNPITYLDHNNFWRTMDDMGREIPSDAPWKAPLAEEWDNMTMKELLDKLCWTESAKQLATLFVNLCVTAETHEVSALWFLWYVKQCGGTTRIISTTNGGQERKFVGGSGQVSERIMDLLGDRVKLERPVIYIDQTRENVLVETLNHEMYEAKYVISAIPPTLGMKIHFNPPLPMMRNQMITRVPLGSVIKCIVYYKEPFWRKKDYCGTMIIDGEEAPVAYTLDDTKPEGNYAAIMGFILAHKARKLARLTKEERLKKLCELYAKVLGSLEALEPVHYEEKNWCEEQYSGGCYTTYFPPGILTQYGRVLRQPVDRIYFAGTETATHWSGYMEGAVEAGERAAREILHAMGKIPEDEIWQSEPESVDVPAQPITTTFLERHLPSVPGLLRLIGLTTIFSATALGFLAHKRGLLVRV
Description: as §1, §2

LSD1 = biological target: T3, LSD1 (Homo sapiens, UniProt O60341); assay: LSD1 Fluorometric Drug Discovery Kit, LSD1 inhibitory activity; details: for IC50: Enzo BML-AK544-0001 kit, 15 min pre-incubation with LSD1 (0.5 µg/well), room temperature, H3K4me2 peptide 20 µM, 30 min, fluorescence 540/590 nm, means ± S.D. of at least three experiments; for LSD1 inhibitory activity: comparison within Table 1
T3 construct: purchased Enzo Life Sciences BML-AK544-0001
Description: The assay was performed with an LSD1 Fluorometric Drug Discovery Kit (Enzo Life Sciences, New York, NY, USA, BML-AK544-0001). […] We also assayed for the inhibitory activities of monoamine oxidases (MAOs), which are FAD-dependent oxidases associated with neurotransmitter metabolism, to investigate the selectivity toward LSD1. For this investigation, we used a MAO-Glo^TM Assay System (Promega, Madison, WI, USA, V1401).
Inhibitors were pre-incubated with LSD1 (0.5 µg/well; room temperature; 15 min) before reactions were initiated by the addition of H3K4me2 peptide (2.3 µg/well, 20 µM) into all wells except the blank. After incubation (room temperature; 30 min), CeLLestial^TM Red and HRP in the assay buffer were added and the incubation was prolonged (room temperature; 5 min). […] IC50 values were determined by regression analysis of the concentration/inhibition data.

Structure (SMILES) | IC50 (MAO-B) | IC50 (MAO-A) | IC50 (LSD1) | LSD1 selectivity (LSD1; LSD1 selectivity, MAO-A/MAO-B assayed for selectivity toward LSD1) | MAO-A inactivation (MAO-A; peptides at 10 µM, PCPA as positive control) | LSD1 inhibitory activity (LSD1)
N[C@@H]1C[C@H]1c1ccccc1 (relative stereo) [PCPA, trans-2-phenylcyclopropylamine, reference compound] |  |  |  |  | inactivated both MAO-A and MAO-B | 
C[C@H](N)C(=O)N[C@@H](CCCNC(=N)N)C(=O)N[C@H](C(=O)N[C@@H](CCCCN[C@@H]1C[C@H]1c1ccccc1)C(=O)N[C@@H](CCC(N)=O)C(=O)N[C@H](C(=O)N[C@@H](C)C(=O)N[C@@H](CCCNC(=N)N)C(=O)N[C@@H](CCCCN)C(=O)N[C@@H](CO)C(=O)N[C@H](C(=O)O)[C@@H](C)O)[C@@H](C)O)[C@@H](C)O [peptide 1, reference compound] | > 10 µM | > 10 µM | 0.126 ± 0.002 µM |  |  | inactivated LSD1 potently compared to PCPA

Further lines, with some results ahead:

IC50 (MAO-B) | IC50 (MAO-A) | IC50 (LSD1) | LSD1 selectivity (LSD1; LSD1 selectivity, MAO-A/MAO-B assayed for selectivity toward LSD1) | Structure (SMILES) | MAO-A inactivation (MAO-A; peptides at 10 µM, PCPA as positive control) | LSD1 inhibitory activity (LSD1)
> 10 µM | > 10 µM | 0.0724 ± 0.004 µM |  | C[C@H](N)C(=O)N[C@@H](CCCNC(=N)N)C(=O)NC1(C(=O)N[C@@H](CCCCN[C@@H]2C[C@H]2c2ccccc2)C(=O)NC2(C(=O)N[C@H](C(=O)N[C@@H](C)C(=O)N[C@@H](CCCNC(=N)N)C(=O)N[C@@H](CCCCN)C(=O)N[C@@H](CO)C(=O)N[C@H](C(=O)O)[C@@H](C)O)[C@@H](C)O)C3CC4CC(C3)CC2C4)C2CC3CC(C2)CC1C3 (stereo partly drawn) [2c] (H-AR[X1][Lys((1R,2S)-2-Ph-cPr)][X1]TARKST-OH; C-terminus assumed) |  | 
> 10 µM | > 10 µM | 0.0891 ± 0.0053 µM |  | C[C@H](N)C(=O)N[C@@H](CCCNC(=N)N)C(=O)NC(C)(C)C(=O)N[C@@H](CCCCN[C@@H]1C[C@H]1c1ccccc1)C(=O)NC(C)(C)C(=O)N[C@H](C(=O)N[C@@H](C)C(=O)N[C@@H](CCCNC(=N)N)C(=O)N[C@@H](CCCCN)C(=O)N[C@@H](CO)C(=O)N[C@H](C(=O)O)[C@@H](C)O)[C@@H](C)O [peptide 2a] (H-AR[Aib][Lys((1R,2S)-2-Ph-cPr)][Aib]TARKST-OH; C-terminus assumed) |  | 
> 10 µM | > 10 µM | 0.0584 ± 0.0025 µM | > 170 fold | C[C@H](N)C(=O)N[C@@H](CCCNC(=N)N)C(=O)NC1(C(=O)N[C@@H](CCCCN[C@@H]2C[C@H]2c2ccccc2)C(=O)NC2(C(=O)N[C@H](C(=O)N[C@@H](C)C(=O)N[C@@H](CCCNC(=N)N)C(=O)N[C@@H](CCCCN)C(=O)N[C@@H](CO)C(=O)N[C@H](C(=O)O)[C@@H](C)O)[C@@H](C)O)CCCCC2)CCCCC1 [peptide 2b] (H-AR[Ac6c][Lys((1R,2S)-2-Ph-cPr)][Ac6c]TARKST-OH; C-terminus assumed) |  | the most potent LSD1 inactivator among the peptides tested in this study
